Laboratory results published in ChEMBL document CHEMBL3297661, “1-Substituted-5-[(3,5-dinitrobenzyl)sulfanyl]-1H-tetrazoles and their isosteric analogs: A new class of selective antitubercular agents active against drug-susceptible and multidrug-resistant mycobacteria” (Eur J Med Chem, 2014).
Converted amounts (≈) assume the structure as drawn.

These molecules were tested on Mycobacterium tuberculosis (assay: Antimycobacterial activity against Mycobacterium tuberculosis H37Rv).
Assay type: functional
`C[C@H]1COC2(CCN(c3nc(=O)c4cc(C(F)(F)F)cc([N+](=O)[O-])c4s3)CC2)O1` [BTZ-043] was tested, and the MIC was 0.0023 µM (≈ 0.992 ng/mL).
`C[C@]1(COc2ccc(N3CCC(Oc4ccc(OC(F)(F)F)cc4)CC3)cc2)Cn2cc([N+](=O)[O-])nc2O1` [DELAMANID] showed an MIC of 0.02 µM (≈ 10.7 ng/mL).
